Measured values from US10988477B2 (Merck Patent GmbH, priority 2018, dated 2021).

Key:
[1] = target: intracellular GCN2 (phosphorylation of the GCN2 substrate eIF2α) (Homo sapiens, UniProt Q9P2K8); assay: GCN2 cellular inhibition assay (AlphaScreen SureFire P-eIF2α Ser51, borrelidin-treated U2OS cells); format: cell-based; settings: biomarker assay, phosphorylated eIF2α Ser51 in borrelidin-treated U2OS cells
Method in brief: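 First, U2OS cells are plated and left overnight at 37 °C. Next, compounds (from 40 μM final, 4-fold steps) and 10 μM borrelidin are added for 1 h, cells lysed, and phospho-Ser51 eIF2α detected by AlphaScreen bead sandwich. Inhibition is computed versus borrelidin-only wells.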

[2] = system: primary human pan T-cells; assay: Human IL-2 assay for GCN2 inhibition (IL-2 secretion by T cells in low amino acid condition); format: cell-based; settings: T-cell; IL-2 secretion from human T cells, anti-CD3/CD28 stimulation, 96 hours; read-out: IL2/T-cell EC50
Source text: Tumor microenvironment is profoundly immuno-suppressive. This may be attributed to the depletion of amino acids (like arginine and tryptophan) which triggers the activation of GCN2 in immune cells, including T cell and myeloid cells. In T cells, activation of GCN2 leads to reduce effector functions of CD8 T cells and induction and/or maintenance of immuno-suppressive T-regs. Inhibition of that immuno-suppressive response by GCN2 inhibitors enables an anti-cancer immune response by activating effector T-cells. Herein we describe an in-vitro system we established using human T-cells stimulated in low amino acid condition in order to engage the GCN2 biology. The method described involves the modulation of IL-2 levels secreted by human T cells in responses to the GCN2 inhibitors disclosed herein.
Amino acid-free RPMI was reconstituted with all but one of the amino acids found in standard RMPI (e.g. Arginine, Tryptophan), 10% charcoal-stripped fetal bovine serum, 100 Units/mL penicillin and 0.1 mg/mL streptomycin. Primary human pan T-cells were isolated using Pan T Cell Isolation Kit, human (MACS Miltenyi biotech Cat #Order no. 130-096-535) from apheresis cones and 5×104 pan T-cells per well. The purified T cells are seeded in Nunc™ 96-Well Polystyrene Round Bottom Microwell Plates (the cells are rested in No TRP media in a 15 ml falcon tube in the incubator for 30-45 minutes while titrations for tryptophan and the GCN2 inhibitor compound are made) A plate matrix was developed to titrate both a GCN2 inhibitor and the amino acid of interest ranging from “No Amino Acid” condition, up to the concentration found in the regular RPMI media (20 μM for TRP and 950 μM for Arginine). The cells were incubated for 30 min at 37° C. with the GCN2 inhibitor and then stimulated with 5×104 anti-CD3/CD28 Dynabeads® per well. After 96 hours of incubation the IL-2 level in the supernatant were measured using ELISA (R&D systems Cat #DY202 (Human IL-2 DuoSet ELISA). Data were plotted in GraphPad Prism software and EC50 is calculated.

[3] = target: GCN2 kinase (Homo sapiens, UniProt Q9P2K8); assay: GCN2 enzyme inhibition assay (Transcreener ADP2 fluorescence polarization); format: biochemical; settings: 280 μM ATP
Method in brief: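 4 nM GCN2 + 200 μM (RS)7 + compound (0–8 μM), 10 min preinc.; start with ATP (280 μM final); 1 h, 25 °C; pH 7.5 Tris/NaCl/MgCl2/DTT; ADP FP readout; IC50, Ki(app) via tight-binding fit.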

[4] = compounds of Formula IV, 4 nM GCN2 kinase
[5] = compounds of Formula II, 4 nM GCN2 kinase
[6] = Enzyme activity for compounds of Formula IV, Ki(app), 25° C.

Chain of GCN2 kinase (Q9P2K8 whole entry): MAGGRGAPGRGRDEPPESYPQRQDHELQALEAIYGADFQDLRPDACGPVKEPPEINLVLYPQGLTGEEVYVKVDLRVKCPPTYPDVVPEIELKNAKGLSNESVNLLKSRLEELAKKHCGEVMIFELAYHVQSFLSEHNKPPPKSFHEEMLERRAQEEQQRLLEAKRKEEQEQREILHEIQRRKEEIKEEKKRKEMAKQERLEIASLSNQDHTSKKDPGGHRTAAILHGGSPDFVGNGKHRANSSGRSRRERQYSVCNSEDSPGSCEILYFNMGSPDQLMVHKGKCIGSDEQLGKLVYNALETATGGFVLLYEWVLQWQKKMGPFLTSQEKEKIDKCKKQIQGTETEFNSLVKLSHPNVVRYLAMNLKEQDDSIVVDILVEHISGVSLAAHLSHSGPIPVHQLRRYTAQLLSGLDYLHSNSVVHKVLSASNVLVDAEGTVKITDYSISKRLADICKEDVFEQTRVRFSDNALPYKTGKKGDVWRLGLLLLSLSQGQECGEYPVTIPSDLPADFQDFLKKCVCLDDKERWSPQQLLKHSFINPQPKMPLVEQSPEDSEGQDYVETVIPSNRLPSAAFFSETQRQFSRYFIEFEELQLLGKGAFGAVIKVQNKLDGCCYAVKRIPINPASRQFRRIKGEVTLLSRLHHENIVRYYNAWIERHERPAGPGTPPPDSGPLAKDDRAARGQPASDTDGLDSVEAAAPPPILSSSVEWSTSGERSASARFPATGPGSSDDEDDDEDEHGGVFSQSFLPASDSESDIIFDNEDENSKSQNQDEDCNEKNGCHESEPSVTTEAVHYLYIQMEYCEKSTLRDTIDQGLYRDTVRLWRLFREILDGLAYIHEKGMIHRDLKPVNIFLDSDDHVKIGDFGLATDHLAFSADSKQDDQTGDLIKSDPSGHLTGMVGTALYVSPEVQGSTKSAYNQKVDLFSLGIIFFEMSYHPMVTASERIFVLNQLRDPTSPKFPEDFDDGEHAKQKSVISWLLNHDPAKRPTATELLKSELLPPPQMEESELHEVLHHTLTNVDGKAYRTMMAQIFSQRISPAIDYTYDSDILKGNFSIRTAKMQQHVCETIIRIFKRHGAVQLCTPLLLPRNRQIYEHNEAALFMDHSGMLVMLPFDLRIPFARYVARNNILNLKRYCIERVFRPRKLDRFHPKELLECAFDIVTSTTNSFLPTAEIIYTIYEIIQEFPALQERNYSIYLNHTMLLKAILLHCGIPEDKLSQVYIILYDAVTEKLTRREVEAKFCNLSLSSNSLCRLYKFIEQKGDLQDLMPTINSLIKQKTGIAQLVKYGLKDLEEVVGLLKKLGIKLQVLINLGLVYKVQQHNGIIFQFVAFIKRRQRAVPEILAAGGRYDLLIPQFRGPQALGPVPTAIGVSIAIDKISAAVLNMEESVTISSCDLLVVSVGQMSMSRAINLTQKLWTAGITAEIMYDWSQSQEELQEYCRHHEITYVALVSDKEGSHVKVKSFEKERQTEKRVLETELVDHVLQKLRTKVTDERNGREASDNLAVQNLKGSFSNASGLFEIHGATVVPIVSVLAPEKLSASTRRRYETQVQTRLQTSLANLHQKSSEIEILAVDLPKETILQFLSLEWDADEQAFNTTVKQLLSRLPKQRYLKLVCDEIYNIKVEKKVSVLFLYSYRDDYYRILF
Chain of intracellular GCN2 (phosphorylation of the GCN2 substrate eIF2α) (Q9P2K8 whole entry): as above

Cc1n[nH]cc1[C@H]1C[C@@H](O)CN(c2ccnc(-c3cnc4cnc(C(F)(F)F)cn34)n2)C1 [IV-776, (3R,5R)-5-(3-methyl-1H-pyrazol-4-yl)-1-(2-(6-(trifluoromethyl)imidazo[1,2-a]pyrazin-3-yl)pyrimidin-4-yl)piperidin-3-ol]
IC50 ([1]; compounds of Formula IV): 0.5 to 5 µM
EC50 [2]: > 500 nM
IC50 [3, 4]: < 10 nM

CS(=O)(=O)NC[C@@H]1CN(c2cc(-c3cnc4ccc(C(F)F)nn34)ncn2)C[C@H](C(F)(F)F)O1 [II-771, N-(((2S,6R)-4-(6-(6-(difluoromethyl)imidazo[1,2-b]pyridazin-3-yl)pyrimidin-4-yl)-6-(trifluoromethyl)morpholin-2-yl)methyl)methanesulfonamide]
EC50 [2]: 100 to 500 nM
IC50 [3, 5]: 10 to 1000 nM

C[C@H]1C[C@@H](NS(C)(=O)=O)CN(c2cc(-c3cnc4ccc(C(F)F)nn34)ncn2)C1 (stereo in doubt) [II-777, N-((3R,5S)-1-(6-(6-(difluoromethyl)imidazo[1,2-b]pyridazin-3-yl)pyrimidin-4-yl)-5-methylpiperidin-3-yl)methanesulfonamide]
EC50 [2]: 100 to 500 nM

C[C@H](NS(C)(=O)=O)[C@@H]1CN(c2cc(-c3cnc4ccc(C(F)F)nn34)ncn2)CCO1 [II-772]
EC50 [2]: 100 to 500 nM
IC50 [3, 5]: 10 to 1000 nM

C[C@H]1[C@@H](CNS(C)(=O)=O)CCCN1c1cc(-c2cnc3ccc(C(F)F)nn23)ncn1 (stereo in doubt) [II-755, N-(((2S,3R)-1-(6-(6-(difluoromethyl)imidazo[1,2-b]pyridazin-3-yl)pyrimidin-4-yl)-2-methylpiperidin-3-yl)methyl)methanesulfonamide]
EC50 [2]: 100 to 500 nM
IC50 [3, 5]: > 1000 nM

C[C@H]1CC(F)(F)C(CNS(C)(=O)=O)CN1c1cc(-c2cnc3ccc(C(F)F)nn23)ncn1 (stereo in doubt) [II-778, N-(((3R,6S)-1-(6-(6-(difluoromethyl)imidazo[1,2-b]pyridazin-3-yl)pyrimidin-4-yl)-4,4-difluoro-6-methylpiperidin-3-yl)methyl)methanesulfonamide]
EC50 [2]: > 500 nM

CC1(C)CN(c2cc(-c3cnc4ccc(C(F)F)nn34)ncn2)C[C@@H](CNS(C)(=O)=O)O1 [II-776, (S)—N-((4-(6-(6-(difluoromethyl)imidazo[1,2-b]pyridazin-3-yl)pyrimidin-4-yl)-6,6-dimethylmorpholin-2-yl)methyl)methanesulfonamide]
EC50 [2]: 100 to 500 nM

CS(=O)(=O)NCC1CCCN(c2cc(-c3cnc4ccc(C(F)F)nn34)cc(OC3CNC3)n2)C1 (centres unmarked) [II-779, N-((1-(6-(azetidin-3-yloxy)-4-(6-(difluoromethyl)imidazo[1,2-b]pyridazin-3-yl)pyridin-2-yl)piperidin-3-yl)methyl)methanesulfonamide]
EC50 [2]: > 500 nM

CS(=O)(=O)NCC1CN(c2cc(-c3cnc4ccc(C(F)F)nn34)ncn2)CC2(CC2)C1(F)F (centres unmarked) [II-775, N-((5-(6-(6-(difluoromethyl)imidazo[1,2-b]pyridazin-3-yl)pyrimidin-4-yl)-8,8-difluoro-5-azaspiro[2.5]octan-7-yl)methyl)methanesulfonamide]
EC50 [2]: 100 to 500 nM

C[C@H]1CN(c2cc(-c3cnc4ccc(C(F)F)nn34)ncn2)C[C@@H](CNS(C)(=O)=O)C1(F)F [II-773, N-(((3S,5S)-1-(6-(6-(difluoromethyl)imidazo[1,2-b]pyridazin-3-yl)pyrimidin-4-yl)-4,4-difluoro-5-methylpiperidin-3-yl)methyl)methanesulfonamide]
EC50 [2]: < 100 nM

CS(=O)(=O)NC[C@H]1C[C@@H](C2CC2)CN(c2cc(-c3cnc4ccc(C(F)F)nn34)ncn2)C1 [II-774, N-(((3S,5S)-5-cyclopropyl-1-(6-(6-(difluoromethyl)imidazo[12-b]pyridazin-3-yl)pyrimidin-4-yl)piperidin-3-yl)methyl)methanesulfonamide]
EC50 [2]: < 100 nM

CC1C(CNS(C)(=O)=O)CCN1c1cc(-c2cnc3ccc(C(F)F)nn23)ncn1 (centres unmarked) [II-244, N-((1-(6-(6-(Difluoromethyl)imidazo[1,2-b]pyridazin-3-yl)pyrimidin-4-yl)-2-methylpyrrolidin-3-yl)methyl)methanesulfonamide]
IC50 ([1]; compounds of Formula II): > 5 µM
Ki [3, 5]: 10 to 1000 nM

CC1C(c2cn[nH]c2)CCCN1c1nccc(-c2cnc3cnc(C(F)(F)F)cn23)n1 (centres unmarked) [IV-485, 3-(2-(2-Methyl-3-(1H-pyrazol-4-yl)piperidin-1-yl)pyrimidin-4-yl)-6-(trifluoromethyl)imidazo[1,2-a]pyrazine]
IC50 ([1]; compounds of Formula IV): < 0.5 µM
Ki [3, 6]: < 10 nM

CC1C(CNS(C)(=O)=O)N(C)CCN1c1cc(-c2cnc3ccc(C(F)F)nn23)ncn1 (mixture of isomers) [II-312, N-((4-(6-(6-(Difluoromethyl)imidazo[1,2-b]pyridazin-3-yl)pyrimidin-4-yl)-1,3-dimethylpiperazin-2-yl)methyl)methanesulfonamide]
IC50 ([1]; compounds of Formula II): < 0.5 µM
Ki [3, 5]: < 10 nM

CS(C)(=O)=NC1CC(c2cn[nH]c2)CN(c2ccnc(-c3cnc4cnc(C(F)(F)F)cn34)n2)C1 (single isomer, unassigned) [IV-400, ((5-(1H-Pyrazol-4-yl)-1-(2-(6-(trifluoromethyl)imidazo[1,2-a]pyrazin-3-yl)pyrimidin-4-yl)piperidin-3-yl)imino)dimethyl-λ^6-sulfanone]
IC50 ([1]; compounds of Formula IV): > 5 µM
Ki [3, 6]: 10 to 100 nM

CC1CC(N=S(C)(C)=O)CN(c2cc(-c3cnc4ccc(C(F)F)nn34)ncn2)C1 (single isomer, unassigned) [II-540, ((1-(6-(6-(Difluoromethyl)imidazo[1,2-b]pyridazin-3-yl)pyrimidin-4-yl)-5-methylpiperidin-3-yl)imino)dimethyl-λ^6-sulfanone]
IC50 ([1]; compounds of Formula II): 0.5 to 5 µM
Ki [3, 5]: 10 to 1000 nM

FC(F)c1ccc2ncc(-c3cc(N4CCOCC45CC5)ncn3)n2n1 [II-400, 4-(6-(6-(Difluoromethyl)imidazo[1,2-b]pyridazin-3-yl)pyrimidin-4-yl)-7-oxa-4-azaspiro[2.5]octane]
IC50 ([1]; compounds of Formula II): > 5 µM
Ki [3, 5]: 10 to 1000 nM

O=C1OCC2CN(c3cc(-c4cnc5ccc(C(F)F)nn45)ccn3)CCN12 (centres unmarked) [II-88, 7-(4-(6-(Difluoromethyl)imidazo[1,2-b]pyridazin-3-yl)pyridin-2-yl)tetrahydro-1H-oxazolo[3,4-a]pyrazin-3(5H)-one]
IC50 ([1]; compounds of Formula II): 0.5 to 5 µM
Ki [3, 5]: 10 to 1000 nM

NC(=O)c1cn2c(-c3cccc(-c4cccc5[nH]ccc45)n3)cnc2cn1 [IV-225, 3-(6-(1H-Indol-4-yl)pyridin-2-yl)imidazo[1,2-a]pyrazine-6-carboxamide]
IC50 ([1]; compounds of Formula IV): 0.5 to 5 µM
Ki [3, 6]: 10 to 100 nM

CC(NS(C)(=O)=O)C1CN(c2ccnc(-c3cnc4cnc(C(F)F)cn34)n2)CCO1 (centres unmarked) [IV-61, N-(1-(4-(2-(6-(Difluoromethyl)imidazo[1,2-a]pyrazin-3-yl)pyrimidin-4-yl)morpholin-2-yl)ethyl)methanesulfonamide]
IC50 ([1]; compounds of Formula IV): > 5 µM
Ki [3, 6]: 100 to 1000 nM

CC1CN(c2ccnc(-c3cnc4cnc(C(F)(F)F)cn34)n2)C(C)C(c2cnc[nH]2)N1 (single isomer, unassigned) [IV-538, 3-(4-(3-(1H-Imidazol-5-yl)-2,5-dimethylpiperazin-1-yl)pyrimidin-2-yl)-6-(trifluoromethyl)imidazo[1,2-a]pyrazine]
IC50 ([1]; compounds of Formula IV): 0.5 to 5 µM
Ki [3, 6]: < 10 nM

C[C@H]1C[C@@H](c2cn[nH]c2)CN(c2ccnc(-c3cnc4cnc(C(F)(F)F)cn34)n2)C1 [IV-771, 3-(4-((3S,5S)-3-methyl-5-(1H-pyrazol-4-yl)piperidin-1-yl)pyrimidin-2-yl)-6-(trifluoromethyl)imidazo[1,2-a]pyrazine]
IC50 ([1]; compounds of Formula IV): < 0.5 µM
IC50 [3, 4]: < 10 nM
